Data on 44 molecules can be found in the Biogen ADME set (Fang et al. 2023).

The conditions of the series: for aqueous solubility: pH 6.8.

As usually defined, the aqueous solubility is the dissolved amount per volume that the medium holds. Higher therefore signals much dissolved substance.

Converted amounts (≈) assume the structure as drawn. Some results are limits rather than exact numbers.

Take `c1ccc(-c2c(-c3ccc(OCCN4CCCC4)cc3)[nH]c3ncnc(NCC4SCCS4)c23)cc1`: the MDR1-MDCK efflux ratio is 25; the intrinsic clearance, human liver microsomes was 80.2 mL/min/kg; the intrinsic clearance, rat liver microsomes was determined as 165 mL/min/kg; the aqueous solubility was 3.72 µg/mL (≈ 7.19 µM).
For `COC1(c2nc(Cc3ccccc3)no2)CCN(Cc2ncccc2Cl)CC1`, the MDR1-MDCK efflux ratio stood at 0.76; the intrinsic clearance, human liver microsomes was determined as 123 mL/min/kg; the intrinsic clearance, rat liver microsomes turned out to be 1780 mL/min/kg.
For the molecule `Cc1ccc(F)cc1NC(=O)c1cnc2onc(C(C)C)c2c1`, the MDR1-MDCK efflux ratio was found to be 0.649; the intrinsic clearance, human liver microsomes came out at 29.3 mL/min/kg; the intrinsic clearance, rat liver microsomes was 217 mL/min/kg; the aqueous solubility worked out at 42.4 µg/mL (≈ 135 µM).
For `Cc1cc(C)n(-c2cc(Nc3ccccc3C)ncn2)n1`, the MDR1-MDCK efflux ratio was found to be 0.489; the intrinsic clearance, human liver microsomes was determined as 59.7 mL/min/kg; the intrinsic clearance, rat liver microsomes worked out at 286 mL/min/kg; the aqueous solubility came out at 1.74 µg/mL (≈ 6.23 µM).
As for `CC1(CNC(=O)c2cncc(C3CCNCC3)n2)CCCO1` (centres undefined), the fraction unbound, human plasma stood at 0.974; the fraction unbound, rat plasma is 0.912; the intrinsic clearance, human liver microsomes was not above 4.74 mL/min/kg; the intrinsic clearance, rat liver microsomes was 21.3 mL/min/kg.
Turning to `O=C(Nc1cn(CCOCC(F)(F)F)nc1-c1ccccn1)c1coc(-c2cn[nH]c2)n1`, the MDR1-MDCK efflux ratio was determined as 6.03; the intrinsic clearance, human liver microsomes turned out to be 51.7 mL/min/kg; the intrinsic clearance, rat liver microsomes turned out to be 518 mL/min/kg.
On to `Cc1nnc2ncc(-c3cccc(-c4ccnn4C)c3)cn12`, for which the MDR1-MDCK efflux ratio worked out at 0.929; the intrinsic clearance, human liver microsomes was not above 4.74 mL/min/kg; the intrinsic clearance, rat liver microsomes turned out to be 31 mL/min/kg.
On to `O=C(c1ccc2oc(CCCc3ccccc3)nc2c1)N1CCC(Oc2cccnc2)CC1`, for which the MDR1-MDCK efflux ratio amounted to 1.48; the intrinsic clearance, human liver microsomes was determined as 679 mL/min/kg; the intrinsic clearance, rat liver microsomes was 2090 mL/min/kg; the aqueous solubility amounted to 24.3 µg/mL (≈ 55 µM).
Taken in the same sequence, the figures for `O=C(Cc1ccc(Cl)cc1)NCc1ccncc1` were 0.772, not above 4.74 mL/min/kg, 35.9 mL/min/kg and 51.6 µg/mL (≈ 198 µM).
Molecule `CN(c1nc2ccccc2o1)C1CCN(C2CCOCC2)CC1` returned an intrinsic clearance, human liver microsomes of 438 mL/min/kg and an intrinsic clearance, rat liver microsomes of 117 mL/min/kg.
`O=C(CNC(=O)c1ccccc1Cl)Nc1cccc2c1CCCC2` gave an intrinsic clearance, human liver microsomes of 60 mL/min/kg and an intrinsic clearance, rat liver microsomes of 1840 mL/min/kg.
Regarding `CCCc1nn(CCCN2CCCCC2)c(=O)o1`, the MDR1-MDCK efflux ratio was determined as 0.542; the intrinsic clearance, human liver microsomes was 13.6 mL/min/kg; the intrinsic clearance, rat liver microsomes was 1600 mL/min/kg.
Turning to `Cc1ccnc(-n2nccc2NC(=O)NC2(C)CCC2)c1`, the MDR1-MDCK efflux ratio turned out to be 0.579; the intrinsic clearance, human liver microsomes amounted to 72.8 mL/min/kg; the intrinsic clearance, rat liver microsomes is 931 mL/min/kg.
Take `CNc1cc(C)nc(-c2ccnc3c2ccn3C)n1`: the intrinsic clearance, human liver microsomes is 85.7 mL/min/kg; the intrinsic clearance, rat liver microsomes stood at 82.2 mL/min/kg; the aqueous solubility was found to be 29.2 µg/mL (≈ 115 µM).
As to `N#Cc1ccccc1-c1ccc(-c2nccn2-c2cccnc2)o1`, the MDR1-MDCK efflux ratio stood at 1.48; the intrinsic clearance, human liver microsomes was 87.9 mL/min/kg; the intrinsic clearance, rat liver microsomes is 719 mL/min/kg; the aqueous solubility is 29.7 µg/mL (≈ 95.2 µM).
With `Cc1cc(CN(C)C(=O)C(=O)Nc2ccc(F)c(C)c2)no1`, the intrinsic clearance, human liver microsomes was 13.7 mL/min/kg and the intrinsic clearance, rat liver microsomes stood at 270 mL/min/kg.
For `Cc1ccc2nc(-c3ccc(N(C)C)cc3)[nH]c2c1`, the MDR1-MDCK efflux ratio was determined as 0.316; the intrinsic clearance, human liver microsomes stood at 120 mL/min/kg; the intrinsic clearance, rat liver microsomes came out at 2530 mL/min/kg; the aqueous solubility is 11.4 µg/mL (≈ 45.5 µM).
As for `Cc1cccc(O[C@H]2CN(Cc3ccc(OCCCO)cc3)C[C@@H]2O)c1`, the MDR1-MDCK efflux ratio amounted to 2.24; the intrinsic clearance, human liver microsomes was 71 mL/min/kg; the intrinsic clearance, rat liver microsomes was determined as 702 mL/min/kg; the aqueous solubility is 62 µg/mL (≈ 173 µM).
Consider `O=C1CCCC[C@@H]2[C@H](C[C@@H](Cc3ccccc3F)N2C(=O)c2cccc3ncccc23)N1`, for which the MDR1-MDCK efflux ratio is 48.1; the fraction unbound, human plasma turned out to be 0.19; the fraction unbound, rat plasma was determined as 0.223; the intrinsic clearance, human liver microsomes stood at 63.7 mL/min/kg. In addition, the intrinsic clearance, rat liver microsomes was 400 mL/min/kg.
For `N#Cc1ccc(NS(=O)(=O)c2c[nH]c3nc(Cl)ccc23)c(F)c1`, the MDR1-MDCK efflux ratio turned out to be 6.41; the intrinsic clearance, human liver microsomes is not above 4.74 mL/min/kg; the aqueous solubility stood at 13.1 µg/mL (≈ 37.3 µM).
As to `COc1ccc(CCNCc2ccc(-c3ccccc3)o2)cc1OC`, the MDR1-MDCK efflux ratio came to 0.979; the intrinsic clearance, human liver microsomes turned out to be 63.8 mL/min/kg; the intrinsic clearance, rat liver microsomes was 1090 mL/min/kg; the aqueous solubility was found to be 74.3 µg/mL (≈ 220 µM).
With `CC(C)(C)NC(=O)c1cncn1C1CCN(c2ccc(-c3nnc(C(F)(F)F)o3)cn2)CC1`, the MDR1-MDCK efflux ratio came out at 8.45; the intrinsic clearance, human liver microsomes was not above 4.74 mL/min/kg; the intrinsic clearance, rat liver microsomes was found to be 25.3 mL/min/kg; the aqueous solubility is 61.1 µg/mL (≈ 132 µM).
On to `Cc1nn(CCNS(=O)(=O)N2CCCCC2)c(C)c1C`, for which the MDR1-MDCK efflux ratio was found to be 1.53; the intrinsic clearance, human liver microsomes worked out at 163 mL/min/kg; the intrinsic clearance, rat liver microsomes is 3200 mL/min/kg.
For `COc1ccncc1NCc1ccc2c(c1)OCCO2`, the MDR1-MDCK efflux ratio was found to be 0.666; the intrinsic clearance, human liver microsomes amounted to 17.8 mL/min/kg; the intrinsic clearance, rat liver microsomes was determined as 570 mL/min/kg; the aqueous solubility turned out to be 31.1 µg/mL (≈ 114 µM).
`Cc1nc2cc(NC(=O)CCc3c(C)noc3C)ccc2o1`: the MDR1-MDCK efflux ratio was 4.62; the intrinsic clearance, human liver microsomes is not above 4.74 mL/min/kg; the intrinsic clearance, rat liver microsomes is 78.5 mL/min/kg; the aqueous solubility was found to be 39.1 µg/mL (≈ 131 µM).
Consider `COc1cccc(NC(=O)c2c([O-])n(-c3cccc(OC)c3)n[n+]2C)c1`, for which the MDR1-MDCK efflux ratio was determined as 0.637 and the aqueous solubility worked out at 0.19 µg/mL (≈ 0.536 µM).
Regarding `CNCC(=O)Nc1cc(Cl)c(OCCOC)c(Cl)c1`, the aqueous solubility stood at 87.3 µg/mL (≈ 284 µM).
Regarding `Fc1cccc(N2CCCC2)c1CN1CCN(Cc2ccon2)CC1`, the MDR1-MDCK efflux ratio was determined as 0.64; the intrinsic clearance, human liver microsomes stood at 60.6 mL/min/kg; the intrinsic clearance, rat liver microsomes stood at 3460 mL/min/kg.
On to `Cc1nc2ccccc2n1Cc1ccc(C(=O)O)cc1`, for which the MDR1-MDCK efflux ratio was 2.75; the intrinsic clearance, human liver microsomes is not above 4.74 mL/min/kg; the intrinsic clearance, rat liver microsomes is not above 10.7 mL/min/kg; the aqueous solubility is 35.4 µg/mL (≈ 133 µM).
Turning to `CC(C)C(=O)N1CCn2nc(CNC3CCc4ccccc4CC3)cc2C1`, the MDR1-MDCK efflux ratio stood at 27.1; the intrinsic clearance, human liver microsomes was not above 4.74 mL/min/kg; the intrinsic clearance, rat liver microsomes turned out to be 205 mL/min/kg.
`O=C(C1CCCN(C(=O)N2CCCC2)C1)N1CCc2ccccc2C1` (centres undefined) returned an intrinsic clearance, human liver microsomes of 87.1 mL/min/kg; an intrinsic clearance, rat liver microsomes of 1010 mL/min/kg; an aqueous solubility of 57.4 µg/mL (≈ 168 µM).
Take `c1ccc2c(N3CCn4c(nnc4C4CC4)C3)ncnc2c1`: the MDR1-MDCK efflux ratio came to 16; the intrinsic clearance, human liver microsomes was not above 4.74 mL/min/kg; the intrinsic clearance, rat liver microsomes is not above 10.7 mL/min/kg; the aqueous solubility was determined as 43.4 µg/mL (≈ 148 µM).
Turning to `COc1ccnc(N2CC(n3nc(C)cc3C)C2)n1`, the MDR1-MDCK efflux ratio turned out to be 0.655; the intrinsic clearance, human liver microsomes was not above 4.74 mL/min/kg; the intrinsic clearance, rat liver microsomes was found to be 44.2 mL/min/kg; the aqueous solubility stood at 38 µg/mL (≈ 146 µM).
On to `O=C1CCC(=O)N1Cc1nc(C23CC4CC(CC(C4)C2)C3)cs1`, for which the intrinsic clearance, human liver microsomes amounted to 105 mL/min/kg; the intrinsic clearance, rat liver microsomes is 1400 mL/min/kg; the aqueous solubility amounted to 42.8 µg/mL (≈ 129 µM).
Regarding `Cc1nn(-c2ccc(F)cc2)c(Cl)c1C(=O)N1CCC(S(=O)(=O)C(C)C)CC1`, the MDR1-MDCK efflux ratio is 14.6; the intrinsic clearance, human liver microsomes was not above 4.74 mL/min/kg; the intrinsic clearance, rat liver microsomes came to 14.2 mL/min/kg; the aqueous solubility stood at 67.3 µg/mL (≈ 157 µM).
With `Nc1ncnc2c1c(-c1ccc(Oc3ccccc3)cc1)nn2[C@@H]1CCCNC1`, the MDR1-MDCK efflux ratio is 21; the fraction unbound, human plasma was determined as 0.0905; the fraction unbound, rat plasma turned out to be 0.0702; the intrinsic clearance, human liver microsomes was 35 mL/min/kg. Besides, the intrinsic clearance, rat liver microsomes amounted to 103 mL/min/kg and the aqueous solubility was determined as 40 µg/mL (≈ 103 µM).
As to `Cc1cc2ccccc2n1CC(=O)N1CCc2ccc(O)cc2C1`, the MDR1-MDCK efflux ratio stood at 2.59; the intrinsic clearance, human liver microsomes was 25.3 mL/min/kg; the intrinsic clearance, rat liver microsomes was 456 mL/min/kg; the aqueous solubility turned out to be 12.4 µg/mL (≈ 38.8 µM).
In the case of `COCc1ccccc1CNc1ccc2cc(C#N)ccc2n1`, the MDR1-MDCK efflux ratio was determined as 0.442; the intrinsic clearance, human liver microsomes was found to be 73.8 mL/min/kg; the intrinsic clearance, rat liver microsomes came out at 429 mL/min/kg; the aqueous solubility is 2.61 µg/mL (≈ 8.6 µM).
The molecule `Cc1cc(C)c2c(N)c(C(=O)NCc3ccc(Cl)cc3)sc2n1` yielded a fraction unbound, human plasma of 0.00426; a fraction unbound, rat plasma of 0.00652; an intrinsic clearance, human liver microsomes of 162 mL/min/kg; an intrinsic clearance, rat liver microsomes of 1540 mL/min/kg.
Consider `CN(Cc1nncn1C)C1CCN(c2ccccc2F)CC1`, for which the MDR1-MDCK efflux ratio was found to be 2.06; the intrinsic clearance, human liver microsomes is not above 4.74 mL/min/kg; the intrinsic clearance, rat liver microsomes is 89.4 mL/min/kg.
Take `Cc1cc(N2CCCCC2)nc(CNC(=O)c2ccccc2Cl)n1`: the MDR1-MDCK efflux ratio is 0.671; the intrinsic clearance, human liver microsomes is 56.5 mL/min/kg; the intrinsic clearance, rat liver microsomes came to 1000 mL/min/kg; the aqueous solubility is 65.2 µg/mL (≈ 189 µM).
On to `CN(C)CCNc1c2c(c(C#N)c3nc4ccccc4n13)CCCC2`, for which the MDR1-MDCK efflux ratio was determined as 2.57; the intrinsic clearance, human liver microsomes came to 24 mL/min/kg; the intrinsic clearance, rat liver microsomes was determined as 270 mL/min/kg; the aqueous solubility turned out to be 36 µg/mL (≈ 108 µM).
Consider `CNC(=O)c1sc2ncccc2c1[C@H]1CC[C@H](CNC(=O)COc2ccccc2)CC1`, for which the MDR1-MDCK efflux ratio was 31; the intrinsic clearance, human liver microsomes is 103 mL/min/kg; the intrinsic clearance, rat liver microsomes was 1070 mL/min/kg; the aqueous solubility came to 91.2 µg/mL (≈ 208 µM).
For `CC(C)(C)C(=O)N1CCC(CN(CC(N)=O)C2CCCC2)CC1`, the MDR1-MDCK efflux ratio was determined as 26.6; the intrinsic clearance, human liver microsomes worked out at 29.8 mL/min/kg; the intrinsic clearance, rat liver microsomes was 1410 mL/min/kg.
